Data published in ChEMBL document CHEMBL1148058, “Antibacterial triterpenoid acids from Dillenia papuana” (1994).

Columns and labels:
Format in all cases: functional
[1] = test system: Bacillus subtilis; assay: Antibacterial activity against Bacillus subtilis ATCC 6633
[2] = test system: Micrococcus luteus; assay: Antibacterial activity against Micrococcus luteus ATCC 9341
[3] = test system: Escherichia coli; assay: Antibacterial activity against Escherichia coli ATCC 25922

MIC [1] [µg] | MIC [2] [µg] | MIC [3] [µg] | SMILES
1 | 1 | 1 | CC1(C)C(=O)C=C[C@]2(C)[C@H]3CC=C4[C@@H]5C[C@@](C)(C(=O)O)CC[C@]5(C)CC[C@@]4(C)[C@]3(C)CC[C@@H]12
0.1 | 0.04 | 0.04 | O=C(N[C@H](CO)[C@H](O)c1ccc([N+](=O)[O-])cc1)C(Cl)Cl [CHLORAMPHENICOL]
2.4 | 1.2 | 2.4 | CC1(C)C(=O)[C@H](O)C[C@]2(C)[C@H]3CC=C4[C@@H]5C[C@@](C)(C(=O)O)CC[C@]5(C)CC[C@@]4(C)[C@]3(C)CC[C@@H]12 [DILLENIC ACID A]
2 | 1 | 1 | CC1(C)[C@@H](O)C(=O)C[C@]2(C)[C@H]3CC=C4[C@@H]5C[C@@](C)(C(=O)O)CC[C@]5(C)CC[C@@]4(C)[C@]3(C)CC[C@@H]12 [DILLENIC ACID B]
2 | 2 | 5 | CC1(C)C(=O)C[C@H](O)[C@]2(C)[C@H]3CC=C4[C@@H]5C[C@@](C)(C(=O)O)CC[C@]5(C)CC[C@@]4(C)[C@]3(C)CC[C@@H]12 [DILLENIC ACID C]
